This note sets out measurements from US20190010158A1, “ANTITUMOR EFFECT POTENTIATOR COMPRISING PYRROLOPYRIMIDINE COMPOUND” (TAIHO PHARMACEUTICAL CO., LTD, priority 2015, published 2019).

Where “and” joins values, the source holds several entries; their conditions need not be identical. Equal entries are not always repeated. Where two headings read alike, the source gives them in different places.

For experiment [1], the system named is tumor cell lines shown in Table 26. Description: Example 3: combined use with serine-threonine kinase inhibitor, cell growth inhibition test (IC50 ratio, CI). To be noted: for Comprehensive Evaluation: combined use with Reference Example Compound 55.
Experiment [2] relates to tumor cell lines shown in Table 42. Description: Example 11: combined use with antimetabolite, cell growth inhibition test (IC50 ratio, CI). Type of experiment: cell-based. Particulars: for Comprehensive Evaluation: combined use with Reference Example Compound 55.
The subject of experiment [3] is human acute T lymphoblastic leukemia CCRF-CEM cell lines. As to the kind of experiment: Cell growth inhibition 1 (CellTiter-Glo). Type of experiment: cell-based. To be noted: culture with test compound 72 hours.
[4] abbreviates: A549, IC50 of Reference Example Compound 55 : IC50 of other compound = 1:value.
Setting [5] is: TMD-8, IC50 of Reference Example Compound 55 : IC50 of other compound = 1:value.

Regarding AZD5363, in experiment [1], the CI was 0.33 and 0.38; the “IC50 Ratio” value amounted to 67.

Turning to `CO[C@H]1C[C@@H]2CC[C@@H](C)[C@@](O)(O2)C(=O)C(=O)N2CCCC[C@H]2C(=O)O[C@H]([C@H](C)C[C@@H]2CC[C@@H](O)[C@H](OC)C2)CC(=O)[C@H](C)/C=C(\C)[C@@H](O)[C@@H](OC)C(=O)[C@H](C)C[C@H](C)/C=C/C=C/C=C/1C` [Rapamycin, rapamycin], the “IC50 Ratio” value in experiment [1] (setting [4]) turned out to be 0.1. In addition, in experiment [1] (A549), the “Comprehensive Evaluation” value is listed as “Synergism (0.3-0.7)”.

Take `CO[C@H]1C[C@@H]2CC[C@@H](C)[C@@](O)(O2)C(=O)C(=O)N2CCCC[C@H]2C(=O)O[C@H]([C@H](C)C[C@@H]2CC[C@@H](OCCO)[C@H](OC)C2)CC(=O)[C@H](C)/C=C(\C)[C@@H](O)[C@@H](OC)C(=O)[C@H](C)C[C@H](C)/C=C/C=C/C=C/1C` [Everolimus, everolimus]: the “IC50 Ratio” value in experiment [1] (VMRC-RCW, IC50 of Reference Example Compound 55 : IC50 of other compound = 1:value) worked out at 6. For the same compound, in experiment [1] (VMRC-RCW), the “Comprehensive Evaluation” value is given as “Synergism (0.3-0.7)”.

`O=c1[nH]c(=O)n([C@H]2C[C@H](O)[C@@H](CO)O2)cc1C(F)(F)F` [Trifluridine, trifluridine]: the “IC50 Ratio” value in experiment [2] (A431, IC50 of Reference Example Compound 55 : IC50 of other compound = 1:value) is 0.5. Moreover, the CI in experiment [2] (A431, Reference Example Compound 55:other compound 1:0.33, at ED50) is reported as 1.06; in experiment [2] (A431, Reference Example Compound 55:other compound 1:1, at ED50), 0.74. The “Comprehensive Evaluation” value in experiment [2] (A431) is reported as “Additive (0.9-1.10)”.

As for `Nc1ccn([C@@H]2O[C@H](CO)[C@@H](O)[C@@H]2O)c(=O)n1` [Cytarabine, cytarabine], in experiment [2], the CI is 0.52 and 0.66; the “IC50 Ratio” value turned out to be 48. Also, the “Comprehensive Evaluation” value in experiment [2] (HCT116) is listed as “Synergism (0.3-0.7)”.

With `CC[C@@H]1C(=O)N(C)c2cnc(Nc3ccc(C(=O)N[C@H]4CC[C@H](N5CCN(CC6CC6)CC5)CC4)cc3OC)nc2N1C(C)C` [Volasertib, volasertib], the “IC50 Ratio” value in experiment [1] (HL-60, IC50 of Reference Example Compound 55 : IC50 of other compound = 1:value) is recorded as 14. Further, the CI in experiment [1] (HL-60, Reference Example Compound 55:other compound 1:11, at ED50) amounted to 0.95; in experiment [1] (HL-60, Reference Example Compound 55:other compound 1:33, at ED50), 0.82. Besides, the “Comprehensive Evaluation” value in experiment [1] (HL-60) is “Additive (0.9-1.10)”.

Regarding `CCSc1cccc(F)c1C#Cc1cn([C@@H]2O[C@H](CNS(N)(=O)=O)[C@@H](O)[C@H]2O)c2ncnc(N)c12` [Reference Example 66, 4-Amino-7-[(2R,3R,4S,5R)-3,4-dihydroxy-5-[(sulfamoylamino)methyl]tetrahydrofuran-2-yl]-5-[2-(2-ethylsulfanyl-6-fluoro-phenyl)ethynyl]pyrrolo[2,3-d]pyrimidine], half-maximal inhibition in experiment [3] (IC50) was put at 4.3 nM. This counts as single-digit nanomolar.

In the case of `CCS(=O)(=O)c1cc(N2CC[C@@H](O)C2)cc(F)c1C#Cc1cn([C@@H]2O[C@H](CNS(N)(=O)=O)[C@@H](O)[C@H]2O)c2ncnc(N)c12` [Reference Example 72, 4-Amino-7-[(2R,3R,4S,5R)-3,4-dihydroxy-5-[(sulfamoylamino)methyl]tetrahydrofuran-2-yl]-5-[2-[2-ethylsulfonyl-6-fluoro-4-[(3R)-3-hydroxypyrrolidin-1-yl]phenyl]ethynyl]pyrrolo[2,3-d]pyrimidine], the IC50 (as a rule, the concentration that gives 50% inhibition) in experiment [3] amounted to 88 nM.

`Nc1ncnc2c1c(C#Cc1c(F)cc(N3CCSCC3)cc1F)cn2[C@@H]1O[C@H](CNS(N)(=O)=O)[C@@H](O)[C@H]1O` [Reference Example 37, 4-[4-[2-[4-Amino-7-[(2R,3R,4S,5R)-3,4-dihydroxy-5-[(sulfamoylamino)methyl]tetrahydrofuran-2-yl]pyrrolo[2,3-d]pyrimidin-5-yl]ethynyl]-3,5-difluoro-phenyl]thiomorpholine] gave a 50% inhibitory concentration (IC50) in experiment [3] of 6 nM. Compared with the last compound, the IC50 is about 15-fold lower.

As for `Nc1ncnc2c1c(C#Cc1c(F)cc(N3CC[C@@H](O)C3)cc1F)cn2[C@@H]1C[C@H](CNS(N)(=O)=O)[C@@H](O)[C@H]1O` [Reference Example 120, 4-Amino-5-[2-[2,6-difluoro-4-[(3R)-3-hydroxypyrrolidin-1-yl]phenyl]ethynyl]-7-[(1R,2S,3R,4R)-2,3-dihydroxy-4-[(sulfamoylamino)methyl]cyclopentyl]pyrrolo[2,3-d]pyrimidine], in experiment [3], half-maximal inhibition (IC50) required 35 nM.

Compound `Nc1ncnc2c1c(C#Cc1cccc3c1S(=O)(=O)CCC3)cn2[C@@H]1O[C@H](CNS(N)(=O)=O)[C@@H](O)[C@H]1O` [Reference Example 83, 4-Amino-7-[(2R,3R,4S,5R)-3,4-dihydroxy-5-[(sulfamoylamino)methyl]tetrahydrofuran-2-yl]-5-[2-(1,1-dioxo-3,4-dihydro-2H-thiochromen-8-yl)ethynyl]pyrrolo[2,3-d]pyrimidine] showed an IC50 in experiment [3] of 56 nM. This IC50 lies about 1.6-fold higher than the previous one.

As to `Nc1ncnc2c1c(C#Cc1c(F)cccc1S(N)(=O)=O)cn2[C@@H]1O[C@H](CNS(N)(=O)=O)[C@@H](O)[C@H]1O` [Reference Example 84, 2-[2-[4-Amino-7-[(2R,3R,4S,5R)-3,4-dihydroxy-5-[(sulfamoylamino)methyl]tetrahydrofuran-2-yl]pyrrolo[2,3-d]pyrimidin-5-yl]ethynyl]-3-fluoro-benzenesulfonamide], the IC50 in experiment [3] was determined as 230 nM. This IC50 lies about 4.1-fold higher than the previous one.

Turning to `Nc1ncnc2c1c(C#Cc1c(F)cc(N3CCCC(O)C3)cc1F)cn2[C@@H]1O[C@H](CNS(N)(=O)=O)[C@@H](O)[C@H]1O` (stereo partly drawn) [Reference Example 38, 4-Amino-5-[2-[2,6-difluoro-4-(3-hydroxy-1-piperidyl)phenyl]ethynyl]-7-[(2R,3R,4S,5R)-3,4-dihydroxy-5-[(sulfamoylamino)methyl]tetrahydrofuran-2-yl]pyrrolo[2,3-d]pyrimidine], the IC50 in experiment [3] turned out to be 14 nM. Against the preceding compound, the IC50 is about 16-fold lower.

Consider `NC1(c2ccc(-c3nc4ccn5c(=O)[nH]nc5c4cc3-c3ccccc3)cc2)CCC1` [MK2206], for which the “IC50 Ratio” value in experiment [1] (setting [4]) is reported as 5. For the same compound, the CI in experiment [1] (A549, Reference Example Compound 55:other compound 1:3, at ED50) is 0.31; in experiment [1] (A549, Reference Example Compound 55:other compound 1:9, at ED50) it was 0.35. Besides, in experiment [1] (A549), the “Comprehensive Evaluation” value was “Synergism (0.3-0.7)”.

In experiment [3], `CCOc1cc(F)cc(F)c1C#Cc1cn([C@@H]2O[C@H](CNS(N)(=O)=O)[C@@H](O)[C@H]2O)c2ncnc(N)c12` [Reference Example 35, 4-Amino-7-[(2R,3R,4S,5R)-3,4-dihydroxy-5-[(sulfamoylamino)methyl]tetrahydrofuran-2-yl]-5-[2-(2-ethoxy-4,6-difluoro-phenyl)ethynyl]pyrrolo[2,3-d]pyrimidine] showed a half-maximal inhibitory concentration (IC50) of 2 nM.

With `CCOc1cc(N2CCOCC2)cc(F)c1C#Cc1cn([C@@H]2O[C@H](CNS(N)(=O)=O)[C@@H](O)[C@H]2O)c2ncnc(N)c12` [Reference Example 34, 4-[4-[2-[4-Amino-7-[(2R,3R,4S,5R)-3,4-dihydroxy-5-[(sulfamoylamino)methyl]tetrahydrofuran-2-yl]pyrrolo[2,3-d]pyrimidin-5-yl]ethynyl]-3-ethoxy-5-fluoro-phenyl]morpholine], the IC50 in experiment [3] was found to be 6.1 nM. Compared with the last compound, the IC50 is about 3-fold higher.

As for `C[C@H](Nc1ncnc2nc[nH]c12)c1cc2cccc(Cl)c2c(=O)n1-c1ccccc1` [Duvelisib, duvelisib], in experiment [1] (setting [5]), the “IC50 Ratio” value amounted to 2. In addition, the CI in experiment [1] (TMD-8, Reference Example Compound 55:other compound 1:1.2, at ED50) is reported as 0.42; in experiment [1] (TMD-8, Reference Example Compound 55:other compound 1:3.7, at ED50), 0.43. The “Comprehensive Evaluation” value in experiment [1] (TMD-8) is reported as “Synergism (0.3-0.7)”.

`Nc1ncnc2c1c(C#Cc1c(F)cc(N3CCC3)cc1F)cn2[C@@H]1O[C@H](CNS(N)(=O)=O)[C@@H](O)[C@H]1O` [Reference Example 43, 4-amino-5-[2-[4-(azetidin-1-yl)-2,6-difluoro-phenyl]ethynyl]-7-[(2R,3R,4S,5R)-3,4-dihydroxy-5-[(sulfamoylamino)methyl]tetrahydrofuran-2-yl]pyrrolo[2,3-d]pyrimidine] yielded a half-inhibitory concentration (IC50) in experiment [3] of 2.7 nM. In other words, the single-digit nanomolar range.

With `CC[C@H](Nc1ncnc2[nH]cnc12)c1nc2cccc(F)c2c(=O)n1-c1ccccc1` [Idelalisib, idelalisib], in experiment [1] (setting [5]), the “IC50 Ratio” value worked out at 23. In addition, the CI in experiment [1] (TMD-8, Reference Example Compound 55:other compound 1:11, at ED50) was 0.57; in experiment [1] (TMD-8, Reference Example Compound 55:other compound 1:33, at ED50), 0.64. In addition, the “Comprehensive Evaluation” value in experiment [1] (TMD-8) is reported as “Synergism (0.3-0.7)”.

For the compound `N#Cc1cccc(F)c1C#Cc1cn([C@@H]2O[C@H](CNS(N)(=O)=O)[C@@H](O)[C@H]2O)c2ncnc(N)c12` [Reference Example 85, 4-Amino-5-[2-(2-cyano-6-fluoro-phenyl)ethynyl]-7-[(2R,3R,4S,5R)-3,4-dihydroxy-5-[(sulfamoylamino)methyl]tetrahydrofuran-2-yl]pyrrolo[2,3-d]pyrimidine], the half-inhibitory concentration (IC50) in experiment [3] was 38 nM.

Compound `COc1cncc(F)c1C#Cc1cn([C@@H]2O[C@H](CNS(N)(=O)=O)[C@@H](O)[C@H]2O)c2ncnc(N)c12` [Reference Example 71, 4-Amino-7-[(2R,3R,4S,5R)-3,4-dihydroxy-5-[(sulfamoylamino)methyl]tetrahydrofuran-2-yl]-5-[2-(3-fluoro-5-methoxy-4-pyridyl)ethynyl]pyrrolo[2,3-d]pyrimidine] returned an IC50 in experiment [3] of 45 nM. This IC50 and that of the compound before are within 1.5-fold of each other.

`Nc1ncnc2c1c(C#CCc1c(F)cccc1F)cn2[C@@H]1O[C@H](CNS(N)(=O)=O)[C@@H](O)[C@H]1O` [Reference Example 31, 4-Amino-5-[3-(2,6-difluorophenyl)prop-1-ynyl]-7-[(2R,3R,4S,5R)-3,4-dihydroxy-5-[(sulfamoylamino)methyl]tetrahydrofuran-2-yl]pyrrolo[2,3-d]pyrimidine] yielded a half-maximal inhibitory concentration (IC50) in experiment [3] of 600 nM.
